# Literature values, collected in patent US20080131532A1, “Fast asleep” (priority 2006, published 2008).
# Tests used:
# [1] = test system: subjects with Alzheimer's disease; settings: eight weeks, 50 subjects
# rat brain = settings: following administration
# [2] = test system: patients with multi-infarct dementia or senile dementia and senile and pre-senile simple memory disorders
# [3] = in vivo
# healthy male volunteers = settings: 10-mg dose for 28 days, 1 hour before sleep time
# [4] = test system: long-term users of benzodiazepine; settings: 2 milligrams daily controlled release
# healthy elderly subjects = settings: 1 mg nightly for 4 weeks
# [5] = test system: children with neurologic disorders; settings: 5 milligrams at bedtime, six children
# jet lag = settings: two doses, different administration times
# patients with tinnitus = settings: 3 mg per day for 4 weeks; weeks 0 to 4 and weeks 0 to 8
# [6] = test system: primary or secondary sleep disorders; settings: meta-analysis
# [7] = test system: travelers crossing five or more time zones
# [8] = test system: schizophrenic outpatients with initial insomnia; settings: 3-12 mg/night, 15 days
# women with asthma = settings: 3 mg for 4 weeks, between groups
# women = settings: 100 mg pill at 08.00 h
# [9] = test system: children with idiopathic chronic sleep-onset insomnia; settings: 5 mg at 7 pm, 4-week treatment
# [10] = sleep-disturbed rats, 09:00 to 15:00
compound,measurement,setting,value
C/C=C1\[C@H]2C=C(C)C[C@]1(N)c1ccc(=O)[nH]c1C2 [Huperzine A],"patients with significant improvement in memory, cognitive and behavioral functions",[1],58%
same,acetylcholine levels in the rat brain,rat brain,increase
same,dopamine levels,rat brain,increases
same,norepinephrine levels,rat brain,increases
same,duration of AChE inhibitory action,"compared with tacrine, donepezil, and rivastigmine",longer duration
same,penetration through the blood-brain barrier,in vivo,better penetration
same,toxicity in animal and clinical safety tests,in vivo,no unexpected toxicity
same,oral bioavailability,"in vivo, po",higher
same,memory deficits,"phase IV clinical trials in China, elderly with benign senescent forgetfulness, Alzheimer disease, vascular dementia",significantly improved
same,Dizziness,[2]; in vivo,experienced by a few
same,Wechsler Memory Scale,[2]; injectable form versus saline control,significant positive effects
same,time to reach peak blood level,[3],approximately 80 minutes
CC1=C[C@H]2Cc3[nH]c(=O)ccc3[C@]3(C1)NCCC[C@H]23 [Huperzine B],acetylcholinesterase inhibition (in words),acetylcholinesterase,much less potent
"COc1ccc2[nH]cc(CCNC(C)=O)c2c1 [Melatonin, N-[2-(5-Methoxy-1H-indol-3-yl)ethyl]acetamide]","sleep latency, criterion 10 minutes of uninterrupted sleep",healthy male volunteers,significant reduction
same,Sleep quality scores versus placebo,[4],significantly higher
same,subjects who completely discontinued benzodiazepine use,"[4]; period one, placebo four of 16",14 of 18
same,California Verbal Learning Test-interference subtest scores,healthy elderly subjects,improved
same,reported morning restedness,healthy elderly subjects,improved
same,sleep latency after nocturnal awakening,healthy elderly subjects,improved
same,Quality and quantity of sleep,[5],quickly increased in five of the six children
same,effect on jet lag versus placebo,jet lag,no beneficial physiological effect
same,mean PSQI,patients with tinnitus,significantly decreased
same,mean THI score,patients with tinnitus,decreased significantly
same,efficacy in primary or secondary sleep disorders,[6],not effective
same,effect on jet lag,[7],reduce or prevent jet lag
same,daytime functioning,[8],improved
same,duration of sleep,[8],increased
same,freshness on awakening,[8],heightened
same,mood,[8],improved
same,number of nighttime awakenings,[8],reduced
same,sleep-onset latency (subjective),[8],significantly reduced
same,"asthma symptoms, use of relief medication and daily peak expiratory flow rate",women with asthma,No significant difference
same,daytime cortisol levels in postmenopausal women (PMW),women,marked increase
same,serum cortisol levels in young women (EFW),women,did not modify
same,Lights-off time,[9],did not change
same,advance of sleep offset,[9],9 min
same,advance of sleep onset,[9],57 min
same,decrease of sleep latency,[9],17 min
same,total scores of the RAND-GHRI and FS-II compared to placebo,[9],improved significantly more
same,total sleep time,[9],did not change
same,advance of melatonin onset,[9]; dim light melatonin onset in saliva,82 min
same,standardized response mean for the RAND-GHRI,[9]; placebo 0.07,0.69
same,standardized response mean for the FS-II,[9]; placebo 0.64,1.61
"CCOC(=O)c1ncn2c1CN(C)C(=O)c1cc(F)ccc1-2 [Flumazenil, flumazenil]",effect on changes in delta activity induced by kava-kava extract and flunitrazepam,sleep-disturbed rats; sleep-disturbed rats,no significant effect
CN1C(=O)CN=C(c2ccccc2F)c2cc([N+](=O)[O-])ccc21 [flunitrazepam],antagonism of the effects by flumazenil,sleep-disturbed rats; benzodiazepine receptor antagonist flumazenil,antagonized
same,delta activity during non-REM sleep,sleep-disturbed rats; sleep-disturbed rats,significant decrease
same,total non-REM sleep time,sleep-disturbed rats; [10],increase
same,total waking time,sleep-disturbed rats; [10],decrease
same,sleep latency,"sleep-disturbed rats; sleep-disturbed rats, kava-kava extract 300 mg/kg",significant shortening
